# Values joined by “and” are separate entries in the source; they are usually repeats but may differ in a detail not shown here. Equal entries are not always repeated. Where two headings read alike, the source gives them in different places.
# How the values were obtained:
# [1] = test system: p53 signaling (p53RE-bla HCT-116 cells)
# [2] = test system: p53 signaling (p53RE-bla HCT-116 cells); remark: listed apart in the source
# [3] = test system: p53 signaling (p53RE-bla HCT-116 cells); test: cells; format: cell-based
# [4] = Homo sapiens, HCT-116, read-out: p53 activation EC50, primary screening
# [5] = Homo sapiens, HCT-116, read-out: p53 activation efficacy, primary screening
# [6] = Homo sapiens, HCT-116, read-out: p53 activation EC50, cherry pick confirmation
# [7] = Homo sapiens, HCT-116, read-out: p53 activation efficacy, cherry pick confirmation
# [8] = Homo sapiens, HCT-116, read-out: EC50, p53 activation, primary screening
# [9] = Homo sapiens, HCT-116, read-out: Efficacy, p53 activation, primary screening
Structure (SMILES),"p53 activation EC50, cherry pick confirmation [1]","p53 activation EC50, primary screening [1]","p53 activation efficacy, cherry pick confirmation [1]","p53 activation efficacy, primary screening [1]","Viability EC50, cherry pick confirmation (p53RE-bla HCT-116 cells)","Viability EC50, primary screening (p53RE-bla HCT-116 cells)","Viability efficacy, cherry pick confirmation (p53RE-bla HCT-116 cells)","Viability efficacy, primary screening (p53RE-bla HCT-116 cells)","p53 activation EC50, cherry pick confirmation [2]","p53 activation EC50, primary screening [2]","p53 activation efficacy, cherry pick confirmation [2]","p53 activation efficacy, primary screening [2]","EC50 [3, 4] [µM]","Emax [3, 5] [%]",further results
C=C(CC)C(=O)c1ccc(OCC(=O)O)c(Cl)c1Cl [Ethacrynic acid],inactive,inactive,inactive,inactive,inactive,inactive,inactive,inactive,inactive,inactive,inactive,inactive,8.57,27.2,"p53 activation EC50, cherry pick confirmation [3]: inactive; p53 activation efficacy, cherry pick confirmation [3]: inactive"
CC[n+]1c(-c2ccccc2)c2cc(N)ccc2c2ccc(N)cc21 [Ethidium bromide],inactive,inactive,inactive,inactive,inactive,inactive,inactive,inactive,inactive,inactive,inactive,inactive,4.43,182,"EC50 [3, 6]: 5.41 µM; Emax [3, 7]: 176%"
CN1CCC(Nc2ncc3ncnc(Nc4ccc(F)c(Cl)c4)c3n2)CC1.Cl.Cl [Falnidamol dihydrochloride],,,,,,,,,,,,,,,"p53 activation EC50, HLM [1]: inactive; EC50 ([1]; read-out: p53 activation EC50, HLM): 14.2 µM; Viability EC50, HLM (p53RE-bla HCT-116 cells): inactive; Viability EC50, No MS (p53RE-bla HCT-116 cells): inactive; Viability EC50, RLM (p53RE-bla HCT-116 cells): inactive; Viability Efficacy, HLM (p53RE-bla HCT-116 cells): inactive; Viability Efficacy, No MS (p53RE-bla HCT-116 cells): inactive; Viability Efficacy, RLM (p53RE-bla HCT-116 cells): inactive; EC50 ([2]; read-out: p53 activation EC50, RLM): 17.2 µM and 8.9 µM; EC50 ([3]; read-out: p53 activation EC50, No MS): 16.7 µM and 12.9 µM"
COC(=O)Nc1nc2ccc(Sc3ccccc3)cc2[nH]1 [Fenbendazole],,,,,,,,,,,,,,,"EC50, p53 activation, cherry pick confirmation [1]: inactive; EC50, p53 activation, primary screening [1]: inactive; Efficacy, p53 activation, cherry pick confirmation [1]: inactive; Efficacy, p53 activation, primary screening [1]: inactive; EC50, viability, cherry pick confirmation (p53RE-bla HCT-116 cells): inactive; EC50, viability, primary screening (p53RE-bla HCT-116 cells): inactive; Efficacy, viability, cherry pick confirmation (p53RE-bla HCT-116 cells): inactive; Efficacy, viability, primary screening (p53RE-bla HCT-116 cells): inactive; EC50, p53 activation, cherry pick confirmation [2]: inactive; EC50, p53 activation, primary screening [2]: inactive; Efficacy, p53 activation, cherry pick confirmation [2]: inactive; Efficacy, p53 activation, primary screening [2]: inactive; EC50, p53 activation, cherry pick confirmation [3]: inactive; Efficacy, p53 activation, cherry pick confirmation [3]: inactive; EC50 [3, 8]: 0.35 µM; Emax [3, 9]: 71%"
N#Cc1c[nH]cc1-c1cccc2c1OC(F)(F)O2 [Fludioxonil],inactive,inactive,inactive,inactive,inactive,inactive,inactive,inactive,inactive,inactive,inactive,inactive,15.6,65.1,"p53 activation EC50, cherry pick confirmation [3]: inactive; p53 activation efficacy, cherry pick confirmation [3]: inactive"
O=C(Nc1cccc(C(F)(F)F)c1)c1cc(Br)cc(Br)c1O [Fluorosalan],,,,,,,,,,,,,,,"EC50, p53 activation, cherry pick confirmation [1]: inactive; EC50, p53 activation, primary screening [1]: inactive; Efficacy, p53 activation, cherry pick confirmation [1]: inactive; Efficacy, p53 activation, primary screening [1]: inactive; EC50, viability, cherry pick confirmation (p53RE-bla HCT-116 cells): inactive; EC50, viability, primary screening (p53RE-bla HCT-116 cells): inactive; Efficacy, viability, cherry pick confirmation (p53RE-bla HCT-116 cells): inactive; Efficacy, viability, primary screening (p53RE-bla HCT-116 cells): inactive; EC50, p53 activation, cherry pick confirmation [2]: inactive; EC50, p53 activation, primary screening [2]: inactive; Efficacy, p53 activation, cherry pick confirmation [2]: inactive; Efficacy, p53 activation, primary screening [2]: inactive; EC50 ([3]; Homo sapiens, HCT-116, read-out: EC50, p53 activation, cherry pick confirmation): 27.3 µM; EC50 [3, 8]: 17.6 µM; Emax ([3]; Homo sapiens, HCT-116, read-out: Efficacy, p53 activation, cherry pick confirmation): 47.5%; Emax [3, 9]: 33.3%"
CC[C@@]1(O)C(=O)OCc2c1cc1n(c2=O)Cc2c-1nc1ccccc1c2/C=N/OC(C)(C)C [Gimatecan],inactive,inactive,inactive,inactive,inactive,inactive,inactive,inactive,inactive,inactive,inactive,inactive,0.118,118,"EC50 [3, 6]: 0.345 µM; Emax [3, 7]: 257%"

# Reference: publication PMC9151520 (Archives of Toxicology, 2022)
